Measurements as given in patent publication US10407467B2, “Polymyxin derivatives and their use in combination therapy together with different antibiotics” (priority 2013, dated 2019).

Assays:
Acinetobacter baumannii [1] = assay: MIC, sole activity (no second agent); format: cell-based; conditions: Second Agent none (Table 7B, by row order)
Outline: (§1)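 First, isolated colonies grown 18-24 hours on Mueller-Hinton agar were suspended to 0.5 McFarland; next, up to four strains per pathogen were tested in duplicate in cation-adjusted MHB; finally, the lower concordant value or modal repeat value was reported against Polymyxin B.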

Pseudomonas aeruginosa [2] = assay: MIC, sole activity (no second agent); format: cell-based
Outline: as §1

Klebsiella pneumoniae [3] = assay: MIC, sole activity (no second agent); format: cell-based
Outline: as §1

Escherichia coli [4] = assay: MIC, sole activity (no second agent); format: cell-based
Outline: as §1

HK-2 cell line = assay: In vitro renal cell toxicity assay (resazurin reduction); format: cell-based, human; conditions: HK-2 cells, 24 h, resazurin reduction; mean values of up to 6 independent studies
[5] = system: Klebsiella pneumoniae ATCC10031; conditions: Total daily dosage 10 mg/Kg (sulfate salt), subcutaneous BID
Experimental: At 1 h, the CFU count was determined from 5 mice and the remaining mice (five per group) were treated with a subcutaneous injection of the drug at +1 and 6 hr post-infection.
Twenty-four hours after infection, the mice were euthanized humanely. The muscle of the right thigh of each animal was harvested, homogenized, serially diluted and plated on Brain Heart Infusion agar+0.5% charcoal (w/v) for CFU determination. Decrease of the total CFU of right thigh as compared to control counts at 24 h post-infection was determined for each dose group.

Acinetobacter baumannii [6] = assay: MIC, compound in combination with a second agent (broth microdilution); format: cell-based
Outline: (§2)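 MIC = combined concentration of test compound plus partner agent, mixed at equal mass (1:1 w/w, salt form as used). Up to four strains per species; colonies adjusted to 0.5 McFarland. Run in duplicate; >2-fold disagreement invalidates the run.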

Pseudomonas aeruginosa [7] = assay: as above; format: cell-based
Outline: as §2

Klebsiella pneumoniae [8] = assay: as above; format: cell-based
Outline: as §2

Escherichia coli [9] = assay: as above; format: cell-based
Outline: as §2

[10] = Second Agent none (Table 7B, by row order)
[11] = 1:1 combination with Ciprofloxacin (by row order), total drug concentration
[12] = 1:1 combination with Tigecycline, total drug concentration
[13] = 1:1 combination with Ciprofloxacin, total drug concentration
[14] = 1:1 combination with Vancomycin, total drug concentration
[15] = Ratio of Compound to Rifampicin 1:1, total drug concentration
[16] = Ratio of Compound to Rifampicin 1:3, total drug concentration
[17] = Ratio of Compound to Rifampicin 3:1, total drug concentration

Substance: Colistin [reference compound]
- MIC A. baumannii NCTC 13424 (Acinetobacter baumannii [1]): 0.5 micrograms/mL
- MIC P. aeruginosa CCUG 59626 (Pseudomonas aeruginosa [2]; P. aeruginosa CCUG 59626, second agent none): 0.5 micrograms/mL
- MIC P. aeruginosa ATCC 27853 (Pseudomonas aeruginosa [2]; [10]): 0.25 micrograms/mL
- MIC P. aeruginosa CCUG 59626 (Pseudomonas aeruginosa [2]; [10]): 0.5 micrograms/mL
- MIC P. aeruginosa CCUG 59626 (Pseudomonas aeruginosa [2]; Second Agent none (Table 7C)): 0.5 micrograms/mL
- MIC K. pneumoniae ATCC BAA-1706 (Klebsiella pneumoniae [3]; K. pneumoniae ATCC BAA-1706, second agent none): 2 micrograms/mL
- MIC K. pneumoniae CCUG 59348 (Klebsiella pneumoniae [3]; K. pneumoniae CCUG 59348, second agent none): 32 micrograms/mL
- MIC K. pneumoniae NCTC 13442 (Klebsiella pneumoniae [3]; K. pneumoniae NCTC 13442, second agent none): 2 micrograms/mL
- MIC K. pneumoniae CCUG 59348 (Klebsiella pneumoniae [3]; Second Agent none (Table 7A)): 32 microgram/mL
- MIC K. pneumoniae CCUG 59626 (Klebsiella pneumoniae [3]; Second Agent none (Table 7A)): 0.5 microgram/mL
- MIC K. pneumoniae NCTC 13442 (Klebsiella pneumoniae [3]; Second Agent none (Table 7A)): 2 microgram/mL
- MIC K. pneumoniae CCUG 59348 (Klebsiella pneumoniae [3]; Second Agent none (Table 7B)): 32 micrograms/mL
- MIC K. pneumoniae NCTC 13442 (Klebsiella pneumoniae [3]; Second Agent none (Table 7B)): 2 micrograms/mL
- MIC K. pneumoniae ATCC 4352 (Klebsiella pneumoniae [3]; [10]): 0.5 micrograms/mL
- MIC K. pneumoniae ATCC BAA-1706 (Klebsiella pneumoniae [3]; [10]): 2 micrograms/mL
- MIC K. pneumoniae CCUG 59348 (Klebsiella pneumoniae [3]; Second Agent none (Table 7C)): 32 micrograms/mL
- MIC K. pneumoniae NCTC 13442 (Klebsiella pneumoniae [3]; Second Agent none (Table 7C)): 2 micrograms/mL
- MIC E. coli NCTC9001 (Escherichia coli [4]; E. coli NCTC9001, second agent none): 1 micrograms/mL
- MIC E. coli NCTC9001 (Escherichia coli [4]; Second Agent none (Table 7A)): 1 microgram/mL
- MIC E. coli ATCC25922 (Escherichia coli [4]; Second Agent none (Table 7B)): 1 micrograms/mL
- MIC E. coli CCUG 59342 (Escherichia coli [4]; Second Agent none (Table 7B)): 0.5 micrograms/mL
- MIC E. coli NCTC9001 (Escherichia coli [4]; Second Agent none (Table 7B)): 2 micrograms/mL
- MIC E. coli NCTC9001 (Escherichia coli [4]; Second Agent none (Table 7C)): 1 micrograms/mL
- IC50 HK-2 cells (HK-2 cell line): 28 µg/mL
- Mean log10 CFU reduction vs. control [5]: 2.60 log10 CFU
- MIC A. baumannii ATCC BAA-747 (Acinetobacter baumannii [6]; 1:1 (wt:wt) combination with Rifampicin, MIC = total drug concentration, strain ATCC BAA-747): 0.25 micrograms/mL
- MIC A. baumannii CCUG57249 (Acinetobacter baumannii [6]; 1:1 (wt:wt) combination with Rifampicin, MIC = total drug concentration, strain CCUG57249): 0.25 micrograms/mL
- MIC A. baumannii NCTC 13423 (Acinetobacter baumannii [6]; 1:1 (wt:wt) combination with Rifampicin, MIC = total drug concentration, strain NCTC 13423): 0.125 micrograms/mL
- MIC A. baumannii NCTC 13424 (Acinetobacter baumannii [6]; 1:1 (wt:wt) combination with Rifampicin, MIC = total drug concentration, strain NCTC 13424): 0.25 micrograms/mL
- MIC A. baumannii NCTC 13424 (Acinetobacter baumannii [6]; [11]): 0.5 micrograms/mL
- MIC P. aeruginosa ATCC 27853 (Pseudomonas aeruginosa [7]; 1:1 (wt:wt) combination with Rifampicin, MIC = total drug concentration, strain ATCC 27853): 0.25 micrograms/mL
- MIC P. aeruginosa ATCC CRM-9027 (Pseudomonas aeruginosa [7]; 1:1 (wt:wt) combination with Rifampicin, MIC = total drug concentration, strain ATCC CRM-9027): 1 micrograms/mL
- MIC P. aeruginosa ATCC-47 (Pseudomonas aeruginosa [7]; 1:1 (wt:wt) combination with Rifampicin, MIC = total drug concentration, strain ATCC-47): 2 micrograms/mL
- MIC P. aeruginosa CCUG 59626 (Pseudomonas aeruginosa [7]; 1:1 (wt:wt) combination with Rifampicin, MIC = total drug concentration, strain CCUG 59626): 0.5 micrograms/mL
- MIC P. aeruginosa ATCC 27853 (Pseudomonas aeruginosa [7]; [11]): 0.125 micrograms/mL
- MIC P. aeruginosa CCUG 59626 (Pseudomonas aeruginosa [7]; [11]): 1 micrograms/mL
- MIC P. aeruginosa CCUG 59626 (Pseudomonas aeruginosa [7]; [12]): 1 micrograms/mL
- MIC P. aeruginosa CCUG 59626 (Pseudomonas aeruginosa [7]; P. aeruginosa CCUG 59626, 1:1 combination with Meropenem, total drug concentration): 1 micrograms/mL
- MIC K. pneumoniae ATCC 4352 (Klebsiella pneumoniae [8]; 1:1 (wt:wt) combination with Rifampicin, MIC = total drug concentration, strain ATCC 4352): 0.5 micrograms/mL
- MIC K. pneumoniae ATCC-BAA-2146 (Klebsiella pneumoniae [8]; 1:1 (wt:wt) combination with Rifampicin, MIC = total drug concentration, strain ATCC-BAA-2146): 1 micrograms/mL
- MIC K. pneumoniae CCUG-59348 (Klebsiella pneumoniae [8]; 1:1 (wt:wt) combination with Rifampicin, MIC = total drug concentration, strain CCUG-59348): 1 micrograms/mL
- MIC K. pneumoniae NCTC 13438 (Klebsiella pneumoniae [8]; 1:1 (wt:wt) combination with Rifampicin, MIC = total drug concentration, strain NCTC 13438): 0.5 micrograms/mL
- MIC K. pneumoniae ATCC 4352 (Klebsiella pneumoniae [8]; [11]): ≤0.06 micrograms/mL
- MIC K. pneumoniae ATCC BAA-1706 (Klebsiella pneumoniae [8]; [11]): 1 micrograms/mL
- MIC K. pneumoniae CCUG 59348 (Klebsiella pneumoniae [8]; [13]): 32 micrograms/mL
- MIC K. pneumoniae NCTC 13442 (Klebsiella pneumoniae [8]; [13]): 1 micrograms/mL
- MIC K. pneumoniae CCUG 59348 (Klebsiella pneumoniae [8]; [12]): >32 micrograms/mL
- MIC K. pneumoniae NCTC 13442 (Klebsiella pneumoniae [8]; [12]): 4 micrograms/mL
- MIC K. pneumoniae CCUG 59348 (Klebsiella pneumoniae [8]; [14]): >32 microgram/mL
- MIC K. pneumoniae CCUG 59626 (Klebsiella pneumoniae [8]; [14]): 2 microgram/mL
- MIC K. pneumoniae NCTC 13442 (Klebsiella pneumoniae [8]; [14]): 8 microgram/mL
- MIC K. pneumoniae ATCC BAA-1706 (Klebsiella pneumoniae [8]; K. pneumoniae ATCC BAA-1706, 1:1 combination with Meropenem, total drug concentration): 4 micrograms/mL
- MIC K. pneumoniae CCUG 59348 (Klebsiella pneumoniae [8]; K. pneumoniae CCUG 59348, 1:1 combination with Meropenem, total drug concentration): >32 micrograms/mL
- MIC K. pneumoniae NCTC 13442 (Klebsiella pneumoniae [8]; K. pneumoniae NCTC 13442, 1:1 combination with Meropenem, total drug concentration): 4 micrograms/mL
- MIC K. pneumoniae ATCC-BAA-2146 (Klebsiella pneumoniae [8]; [15]): 1 micrograms/mL
- MIC K. pneumoniae CCUG-59348 (Klebsiella pneumoniae [8]; [15]): 2 micrograms/mL
- MIC K. pneumoniae NCTC 13438 (Klebsiella pneumoniae [8]; [15]): 2 micrograms/mL
- MIC K. pneumoniae ATCC-BAA-2146 (Klebsiella pneumoniae [8]; [16]): 4 micrograms/mL
- MIC K. pneumoniae CCUG-59348 (Klebsiella pneumoniae [8]; [16]): 4 micrograms/mL
- MIC K. pneumoniae NCTC 13438 (Klebsiella pneumoniae [8]; [16]): 2 micrograms/mL
- MIC K. pneumoniae ATCC-BAA-2146 (Klebsiella pneumoniae [8]; [17]): 1 micrograms/mL
- MIC K. pneumoniae CCUG-59348 (Klebsiella pneumoniae [8]; [17]): 1 micrograms/mL
- MIC K. pneumoniae NCTC 13438 (Klebsiella pneumoniae [8]; [17]): 1 micrograms/mL
- MIC E. coli ATCC25922 (Escherichia coli [9]; 1:1 (wt:wt) combination with Rifampicin, MIC = total drug concentration, strain ATCC25922): 0.25 micrograms/mL
- MIC E. coli NCTC9001 (Escherichia coli [9]; 1:1 (wt:wt) combination with Rifampicin, MIC = total drug concentration, strain NCTC9001): 0.25 micrograms/mL
- MIC E. coli ATCC25922 (Escherichia coli [9]; [13]): ≤0.06 micrograms/mL
- MIC E. coli CCUG 59342 (Escherichia coli [9]; [13]): 1 micrograms/mL
- MIC E. coli NCTC9001 (Escherichia coli [9]; [13]): ≤0.06 micrograms/mL
- MIC E. coli NCTC9001 (Escherichia coli [9]; [12]): 4 micrograms/mL
- MIC E. coli NCTC9001 (Escherichia coli [9]; [14]): 4 microgram/mL
- MIC E. coli NCTC9001 (Escherichia coli [9]; E. coli NCTC9001, 1:1 combination with Meropenem, total drug concentration): 0.25 micrograms/mL
